Measurements from patent US20110287108A1 (priority 2008, published 2011).
Structures can show the parent of a compound that is named as a salt. Where two headings read alike, the source gives them in different places.

Tested on: Phytophthora infestans
Type: in vivo
Details: tomato plants
[1] = protective, 3 days after inoculation, 12.5 ppm a.i.
[2] = protective, 3 days after inoculation, 0.25 ppm a.i.
[3] = protective, 3 days after inoculation, 0.5 ppm a.i.

Compound | Efficacy in % found [1] | Efficacy in % found [2] | further results
fosetyl-aluminium | 42% |  | 
CC(C)[C@H](NC(=O)O)C(=O)N[C@H](C)c1nc2ccc(F)cc2s1 [benthiavalicarb] |  | 16% | 
CCCCCNc1cccc(CON=C(c2ccccc2)c2nnnn2C)n1 [6-[({[(1-methyl-1H-tetrazol-5-yl)(phenyl)methylene]amino}oxy)methyl]-N-pentylpyridin-2-amine] |  |  | Efficacy in % found (protective spray, evaluated 3 days after inoculation, application rate cell empty): 69%
[Cl-].[Cu+2].[Cu+2].[OH-].[OH-].[OH-] [copper oxychloride] | 58% |  | 
O=C(NCc1ncc(C(F)(F)F)cc1Cl)c1c(Cl)cccc1Cl [fluopicolide] |  | 4% | 
CCC(C)(NC(=O)c1cc(Cl)c(C)c(Cl)c1)C(=O)CCl (stereo not drawn) [zoxamide] |  | 18% | 
COc1ccc(C(=CC(=O)N2CCOCC2)c2ccc(Cl)cc2)cc1OC [dimethomorph] |  |  | Efficacy in % found [3]: 35%
OP(O)O [phosporous acid] | 33% |  | 
N#Cc1c(Cl)c(Cl)c(Cl)c(C#N)c1Cl [chlorothalonil] | 19% |  | 
CCCCCCNc1cccc(CON=C(c2ccccc2)c2nnnn2C)n1 [N-hexyl-6-[({[(1-methyl-1H-tetrazol-5-yl)(phenyl)methylene]amino}oxy)-methyl]pyridin-2-amine] |  | 48% | Efficacy in % found [3]: 63%
CCCOC(=O)NCCCN(C)C [propamocarb-HCl] |  |  | Efficacy in % found (protective, 3 days after inoculation, 25 ppm a.i.): 24%
